Like-named read-outs stand apart in the source and are kept apart here.
Assays:
[1] = target: EGFR Del19/T790M/C797S (Homo sapiens, UniProt P00533, C797S/DEL746-750/T790M); assay: Biochemical EGFR kinase inhibition assay (Lance Ultra TR-FRET), triple mutant del19/T790M/C797S
Summary of the method: (§1)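 Kinase activity is measured by TR-FRET phosphopeptide detection. Compounds span 0.003 μM to 10 μM; the 1 h reaction at room temperature is quenched with EDTA, then labelled antibody (2 nM) is incubated 60 min before reading.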

[2] = target: EGFR L858R/T790M/C797S (Homo sapiens, UniProt P00533, C797S/L858R/T790M); assay: Biochemical EGFR kinase inhibition assay (Lance Ultra TR-FRET), triple mutant L858R/T790M/C797S
Sequence of EGFR L858R/T790M/C797S (P00533 25-1210 T790M/C797S/L858R): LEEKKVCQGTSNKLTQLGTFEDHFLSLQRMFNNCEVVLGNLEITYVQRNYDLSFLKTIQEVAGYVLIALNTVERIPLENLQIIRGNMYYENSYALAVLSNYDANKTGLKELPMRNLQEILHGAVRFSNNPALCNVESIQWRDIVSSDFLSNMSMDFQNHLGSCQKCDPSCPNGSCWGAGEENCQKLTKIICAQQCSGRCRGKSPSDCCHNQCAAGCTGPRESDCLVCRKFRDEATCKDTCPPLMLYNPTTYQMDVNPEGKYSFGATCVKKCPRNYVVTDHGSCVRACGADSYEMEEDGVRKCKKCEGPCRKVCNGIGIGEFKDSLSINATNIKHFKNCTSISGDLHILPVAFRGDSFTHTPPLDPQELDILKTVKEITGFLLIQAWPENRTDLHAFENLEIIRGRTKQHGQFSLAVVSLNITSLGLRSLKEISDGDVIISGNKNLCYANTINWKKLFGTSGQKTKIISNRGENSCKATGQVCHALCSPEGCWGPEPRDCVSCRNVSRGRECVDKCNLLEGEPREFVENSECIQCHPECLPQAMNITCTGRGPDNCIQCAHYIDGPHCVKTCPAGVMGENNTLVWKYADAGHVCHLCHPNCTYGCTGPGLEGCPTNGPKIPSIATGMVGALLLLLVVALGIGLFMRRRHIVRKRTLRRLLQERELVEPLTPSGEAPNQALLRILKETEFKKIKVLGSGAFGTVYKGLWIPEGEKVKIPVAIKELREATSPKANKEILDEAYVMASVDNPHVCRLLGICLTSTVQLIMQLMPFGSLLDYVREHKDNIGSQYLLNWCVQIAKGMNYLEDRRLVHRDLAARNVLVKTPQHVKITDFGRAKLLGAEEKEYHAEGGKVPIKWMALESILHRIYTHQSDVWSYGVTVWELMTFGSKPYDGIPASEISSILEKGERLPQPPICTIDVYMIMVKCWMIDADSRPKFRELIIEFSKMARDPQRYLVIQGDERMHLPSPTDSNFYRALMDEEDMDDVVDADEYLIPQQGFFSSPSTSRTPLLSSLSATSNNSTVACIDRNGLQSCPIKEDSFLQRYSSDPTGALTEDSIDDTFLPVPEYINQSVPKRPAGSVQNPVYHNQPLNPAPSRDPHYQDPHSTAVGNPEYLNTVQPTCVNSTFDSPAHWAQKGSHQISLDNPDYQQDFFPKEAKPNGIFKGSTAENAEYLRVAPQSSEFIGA
Summary of the method: as §1

[3] = target: EGFR Del19/C797S (Homo sapiens, UniProt P00533, C797S/DEL746-750); assay: Biochemical EGFR kinase inhibition assay (Lance Ultra TR-FRET), double mutant del19/C797S
Sequence of EGFR Del19/C797S (P00533 with tags, fused parts or gaps DEL746-750/C797S): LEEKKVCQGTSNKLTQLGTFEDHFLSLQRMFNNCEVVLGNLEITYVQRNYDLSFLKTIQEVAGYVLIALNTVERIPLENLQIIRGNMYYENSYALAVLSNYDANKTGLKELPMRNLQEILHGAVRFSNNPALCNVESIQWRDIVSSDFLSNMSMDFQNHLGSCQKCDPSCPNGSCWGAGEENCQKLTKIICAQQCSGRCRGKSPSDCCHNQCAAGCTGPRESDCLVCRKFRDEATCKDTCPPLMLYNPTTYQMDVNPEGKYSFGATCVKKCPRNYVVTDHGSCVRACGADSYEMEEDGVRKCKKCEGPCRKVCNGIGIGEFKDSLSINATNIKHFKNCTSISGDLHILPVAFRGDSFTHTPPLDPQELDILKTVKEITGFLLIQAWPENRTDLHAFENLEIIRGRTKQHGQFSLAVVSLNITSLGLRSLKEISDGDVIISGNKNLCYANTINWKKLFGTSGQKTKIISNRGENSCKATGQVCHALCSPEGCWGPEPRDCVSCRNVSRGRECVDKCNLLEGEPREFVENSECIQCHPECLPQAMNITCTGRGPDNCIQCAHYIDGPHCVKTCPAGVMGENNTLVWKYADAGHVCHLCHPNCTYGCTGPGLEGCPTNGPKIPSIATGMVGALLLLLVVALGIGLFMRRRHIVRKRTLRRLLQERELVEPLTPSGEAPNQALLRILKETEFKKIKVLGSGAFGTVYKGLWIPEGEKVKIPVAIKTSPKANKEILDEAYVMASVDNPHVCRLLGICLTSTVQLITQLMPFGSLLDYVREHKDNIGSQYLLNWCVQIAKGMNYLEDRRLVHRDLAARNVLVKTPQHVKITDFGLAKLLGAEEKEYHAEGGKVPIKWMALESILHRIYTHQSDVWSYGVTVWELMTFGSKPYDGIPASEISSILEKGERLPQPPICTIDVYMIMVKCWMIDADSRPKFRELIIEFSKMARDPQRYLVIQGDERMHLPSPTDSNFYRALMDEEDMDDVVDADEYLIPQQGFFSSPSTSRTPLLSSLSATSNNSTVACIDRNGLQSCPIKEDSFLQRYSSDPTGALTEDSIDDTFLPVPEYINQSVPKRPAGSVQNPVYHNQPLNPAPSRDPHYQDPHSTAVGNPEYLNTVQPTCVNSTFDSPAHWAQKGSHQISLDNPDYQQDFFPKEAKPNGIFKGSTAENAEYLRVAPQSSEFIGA
Summary of the method: as §1

[4] = target: EGFR L858R/C797S (Homo sapiens, UniProt P00533, C797S/L858R); assay: Biochemical EGFR kinase inhibition assay (Lance Ultra TR-FRET), double mutant L858R/C797S
Sequence of EGFR L858R/C797S (P00533 25-1210 C797S/L858R): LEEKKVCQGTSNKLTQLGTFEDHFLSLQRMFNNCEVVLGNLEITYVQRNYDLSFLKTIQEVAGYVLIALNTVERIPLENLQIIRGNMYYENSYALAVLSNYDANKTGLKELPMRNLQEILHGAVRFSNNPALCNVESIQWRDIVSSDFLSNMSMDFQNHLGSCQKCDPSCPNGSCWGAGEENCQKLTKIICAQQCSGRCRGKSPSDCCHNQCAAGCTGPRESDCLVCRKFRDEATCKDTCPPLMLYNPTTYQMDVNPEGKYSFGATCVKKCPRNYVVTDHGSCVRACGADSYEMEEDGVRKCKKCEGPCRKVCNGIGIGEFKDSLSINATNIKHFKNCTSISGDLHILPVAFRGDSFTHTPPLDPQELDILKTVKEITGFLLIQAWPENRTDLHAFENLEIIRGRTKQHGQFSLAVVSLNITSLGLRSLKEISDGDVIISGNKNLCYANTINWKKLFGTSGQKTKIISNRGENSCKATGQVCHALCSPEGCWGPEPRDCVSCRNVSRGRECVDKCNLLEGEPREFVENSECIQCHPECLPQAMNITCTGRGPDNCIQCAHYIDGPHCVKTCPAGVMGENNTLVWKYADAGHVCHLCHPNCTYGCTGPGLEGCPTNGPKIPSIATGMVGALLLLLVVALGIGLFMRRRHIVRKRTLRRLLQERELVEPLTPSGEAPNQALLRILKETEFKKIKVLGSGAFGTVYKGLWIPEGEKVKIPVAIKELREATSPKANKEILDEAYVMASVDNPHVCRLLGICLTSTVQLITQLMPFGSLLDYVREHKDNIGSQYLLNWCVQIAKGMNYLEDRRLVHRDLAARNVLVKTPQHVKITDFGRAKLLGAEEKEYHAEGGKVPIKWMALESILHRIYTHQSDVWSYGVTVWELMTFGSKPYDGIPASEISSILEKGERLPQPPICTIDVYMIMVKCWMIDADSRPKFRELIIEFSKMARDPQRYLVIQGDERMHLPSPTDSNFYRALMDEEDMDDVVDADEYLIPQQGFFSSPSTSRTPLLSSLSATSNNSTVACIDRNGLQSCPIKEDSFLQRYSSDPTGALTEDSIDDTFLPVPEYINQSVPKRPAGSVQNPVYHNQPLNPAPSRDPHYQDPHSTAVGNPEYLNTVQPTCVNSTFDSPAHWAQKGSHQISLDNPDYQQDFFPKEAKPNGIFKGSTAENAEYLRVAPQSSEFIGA
Summary of the method: as §1

[5] = target: EGFR wildtype (WT) (Homo sapiens, UniProt P00533); assay: Biochemical EGFR kinase inhibition assay (Lance Ultra TR-FRET), wildtype
Summary of the method: as §1

[6] = IC50 Del19/T790M/C797S (nM), 100 μM ATP
[7] = Km ATP, read-out: IC50 Del19/T790M/C797S (nM), Km ATP
[8] = IC50 L858R/T790M/C797S (nM), 100 μM ATP
[9] = Km ATP, read-out: IC50 L858R/T790M/C797S (nM), Km ATP
[10] = IC50 Del19/C797S (nM), 100 μM ATP
[11] = Km ATP, read-out: IC50 Del19/C797S (nM), Km ATP
[12] = IC50 L858R/C797S (nM), 100 μM ATP
[13] = Km ATP, read-out: IC50 L858R/C797S (nM), Km ATP
[14] = Km ATP, read-out: IC50 WT (nM), Km ATP

Sequence of EGFR Del19/T790M/C797S (P00533 with tags, fused parts or gaps DEL746-750/T790M/C797S): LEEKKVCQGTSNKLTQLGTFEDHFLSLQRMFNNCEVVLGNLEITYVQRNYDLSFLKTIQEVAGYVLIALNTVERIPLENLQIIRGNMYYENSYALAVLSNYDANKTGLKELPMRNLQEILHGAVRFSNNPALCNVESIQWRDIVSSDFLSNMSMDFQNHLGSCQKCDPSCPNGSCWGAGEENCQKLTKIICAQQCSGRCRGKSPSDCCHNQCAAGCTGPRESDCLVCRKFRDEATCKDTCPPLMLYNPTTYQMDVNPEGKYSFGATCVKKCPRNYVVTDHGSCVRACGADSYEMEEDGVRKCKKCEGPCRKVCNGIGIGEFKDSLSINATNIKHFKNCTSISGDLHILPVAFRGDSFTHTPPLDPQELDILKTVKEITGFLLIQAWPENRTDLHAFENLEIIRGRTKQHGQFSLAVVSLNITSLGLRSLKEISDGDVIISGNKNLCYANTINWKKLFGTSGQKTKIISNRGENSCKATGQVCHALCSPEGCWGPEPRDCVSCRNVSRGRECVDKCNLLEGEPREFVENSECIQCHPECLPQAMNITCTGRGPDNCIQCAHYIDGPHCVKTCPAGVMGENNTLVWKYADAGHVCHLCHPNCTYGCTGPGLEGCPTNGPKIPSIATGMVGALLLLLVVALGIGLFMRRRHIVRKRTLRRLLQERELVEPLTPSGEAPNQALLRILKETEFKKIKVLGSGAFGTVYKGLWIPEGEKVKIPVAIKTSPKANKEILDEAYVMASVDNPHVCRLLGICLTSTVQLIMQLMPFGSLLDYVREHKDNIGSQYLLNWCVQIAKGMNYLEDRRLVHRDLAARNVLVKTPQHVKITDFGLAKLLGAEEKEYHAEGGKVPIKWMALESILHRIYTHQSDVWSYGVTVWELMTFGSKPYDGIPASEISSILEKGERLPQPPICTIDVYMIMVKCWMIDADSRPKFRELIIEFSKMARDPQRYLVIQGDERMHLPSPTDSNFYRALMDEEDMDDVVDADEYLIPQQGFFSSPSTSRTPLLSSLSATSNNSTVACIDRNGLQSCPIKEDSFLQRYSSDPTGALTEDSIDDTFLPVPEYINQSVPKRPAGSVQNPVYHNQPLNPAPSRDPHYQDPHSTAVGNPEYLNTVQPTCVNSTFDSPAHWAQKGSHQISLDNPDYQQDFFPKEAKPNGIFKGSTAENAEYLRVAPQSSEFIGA

Compound	IC50 [1, 6]	IC50 [1, 7]	IC50 [2, 8]	IC50 [2, 9]	IC50 [3, 10]	IC50 [3, 11]	IC50 [4, 12]	IC50 ([5]; IC50 WT (nM), 100 μM ATP)	IC50 [4, 13]	IC50 [5, 14]
CC(C)(O)[C@H]1CC[C@@H](Nc2cc(Nc3ccnc(-c4cnn(S(=O)(=O)C5CC5)c4)n3)ncc2C#Cc2cnn(C(F)(F)F)c2)CC1 [Example 337, 2-((1s,4s)-4-((2-((2-(1-(Cyclopropylsulfonyl)-1H-pyrazol-4-yl)pyrimidin-4-yl)amino)-5-((1-(trifluoromethyl)-1H-pyrazol-4-yl)ethynyl)pyridin-4-yl)amino)cyclohexyl)propan-2-ol]	8 nM	6 nM	10.9 nM	3.3 nM	325 nM	197 nM	> 10000 nM	> 10000 nM		
O=S(=O)(C1CC1)n1cc(-c2nccc(Nc3cc(N[C@H]4CCC[C@H](O)C4)c(C#Cc4cnn(CC(F)(F)F)c4)cn3)n2)cn1 [Example 341, (1S,3S)-3-((2-((2-(1-(Cyclopropylsulfonyl)-1H-pyrazol-4-yl)pyrimidin-4-yl)amino)-5-((1-(2,2,2-trifluoroethyl)-1H-pyrazol-4-yl)ethynyl)pyridin-4-yl)amino)cyclohexan-1-ol]	3.1 nM	2.5 nM	4 nM	0.9 nM	34.2 nM	21.4 nM	128 nM	> 10000 nM	42.4 nM	163 nM
C[C@]1(O)CC[C@@H](Nc2cc(Nc3ccnc(-c4cnn(S(=O)(=O)C5CC5)c4)n3)ncc2C#Cc2cnn(CC(F)(F)F)c2)CC1 [Example 344, (1s, 4s)-4-((2-((2-(1-(Cyclopropylsulfonyl)-1H-pyrazol-4-yl)pyrimidin-4-yl)amino)-5-((1-(2,2,2-trifluoroethyl)-1H-pyrazol-4-yl)ethynyl)pyridin-4-yl)amino)-1-methylcyclohexan-1-ol]	11.5 nM	7.9 nM	5 nM	3.1 nM	50.6 nM	31.3 nM	112 nM	> 10000 nM	24.1 nM	200 nM
O=S(=O)(C1CC1)n1cc(-c2nccc(Nc3cc(N[C@H]4CC[C@@H](NCCF)CC4)c(C#Cc4cnn(CC(F)(F)F)c4)cn3)n2)cn1 [Example 345, N^2-(2-(1-(Cyclopropylsulfonyl)-1H-pyrazol-4-yl)pyrimidin-4-yl)-N^4-((1s,4s)-4-((2-fluoroethyl)amino)cyclohexyl)-5-((1-(2,2,2-trifluoroethyl)-1H-pyrazol-4-yl)ethynyl)pyridine-2,4-diamine]	2.7 nM	1.5 nM	2.2 nM	1.3 nM	27.6 nM	11 nM	45.3 nM	7830 nM	9.3 nM	138 nM
CC(C)(O)[C@H]1CC[C@@H](Nc2cc(Nc3ccnc(-c4cnn(S(=O)(=O)C5CC5)c4)n3)ncc2C#Cc2cnn(CC(F)(F)F)c2)CC1 [Example 346, 2-((1s,4s)-4-((2-((2-(1-(Cyclopropylsulfonyl)-1H-pyrazol-4-yl)pyrimidin-4-yl)amino)-5-((1-(2,2,2-trifluoroethyl)-1H-pyrazol-4-yl)ethynyl)pyridin-4-yl)amino)cyclohexyl)propan-2-ol]	17.4 nM		5.8 nM		45.3 nM		249 nM	> 10000 nM		
CC1(O)CC2(CCN(c3cc(Nc4ccnc(-c5cnn(S(=O)(=O)C6CC6)c5)n4)ncc3C#Cc3cnn(CC(F)(F)F)c3)CC2)C1 [Example 347, 7-(2-((2-(1-(Cyclopropylsulfonyl)-1H-pyrazol-4-yl)pyrimidin-4-yl)amino)-5-((1-(2,2,2-trifluoroethyl)-1H-pyrazol-4-yl)ethynyl)pyridin-4-yl)-2-methyl-7-azaspiro[3.5]nonan-2-ol]	6 nM	5.4 nM	1.7 nM	3.2 nM	8.4 nM	9.2 nM	11.7 nM	7140 nM	5.9 nM	74.3 nM
CC1(CO)CCN(c2cc(Nc3ccnc(-c4cnn(S(=O)(=O)C5CC5)c4)n3)ncc2C#Cc2cnn(CC(F)(F)F)c2)CC1 [Example 348, (1-(2-((2-(1-(Cyclopropylsulfonyl)-1H-pyrazol-4-yl)pyrimidin-4-yl)amino)-5-((1-(2,2,2-trifluoroethyl)-1H-pyrazol-4-yl)ethynyl)pyridin-4-yl)-4-methylpiperidin-4-yl)methanol]	2.1 nM	4.2 nM	0.8 nM	1.4 nM	4.9 nM	4.7 nM	14.3 nM	651 nM	1.1 nM	14.1 nM
CC1(C#Cc2cnc(Nc3ccnc(-c4cnn(S(=O)(=O)C5CC5)c4)n3)cc2N[C@H]2CC[C@@H](O)CC2)COC1 [Example 350, (1s,4s)-4-((2-((2-(1-(Cyclopropylsulfonyl)-1H-pyrazol-4-yl)pyrimidin-4-yl)amino)-5-((3-methyloxetan-3-yl)ethynyl)pyridin-4-yl)amino)cyclohexan-1-ol]	2.8 nM		13.9 nM		81.4 nM		954 nM	> 10000 nM		

Stronger by IC50 [1, 6], values ahead:

IC50 [1, 6]	IC50 [1, 7]	IC50 [2, 8]	IC50 [2, 9]	IC50 [3, 10]	IC50 [3, 11]	IC50 [4, 12]	IC50 ([5]; IC50 WT (nM), 100 μM ATP)	IC50 [4, 13]	IC50 [5, 14]	Compound
2 nM	1.6 nM	1.6 nM	0.7 nM	7.3 nM	5 nM	40.8 nM	> 10000 nM	10.5 nM	26 nM	O=S(=O)(C1CC1)n1cc(-c2nccc(Nc3cc(N[C@H]4CC[C@@H](CO)CC4)c(C#Cc4cnn(CC(F)(F)F)c4)cn3)n2)cn1 [Example 340, ((1s,4s)-4-((2-((2-(1-(Cyclopropylsulfonyl)-1H-pyrazol-4-yl)pyrimidin-4-yl)amino)-5-((1-(2,2,2-trifluoroethyl)-1H-pyrazol-4-yl)ethynyl)pyridin-4-yl)amino)cyclohexyl)methanol]
1.9 nM	2.6 nM	3.1 nM	0.7 nM	19.2 nM	11.9 nM	68.1 nM	> 10000 nM	19.8 nM	55.5 nM	O=S(=O)(C1CC1)n1cc(-c2nccc(Nc3cc(N4CCCC(O)C4)c(C#Cc4cnn(CC(F)(F)F)c4)cn3)n2)cn1 (centres unmarked) [Example 343, 1-(2-((2-(1-(Cyclopropylsulfonyl)-1H-pyrazol-4-yl)pyrimidin-4-yl)amino)-5-((1-(2,2,2-trifluoroethyl)-1H-pyrazol-4-yl)ethynyl)pyridin-4-yl)piperidin-3-ol]
1.5 nM	1.5 nM	1 nM	0.5 nM	4.8 nM	2.6 nM	9.4 nM	844 nM	1.4 nM	9.1 nM	CN(C)CCC1CCN(c2cc(Nc3ccnc(-c4cnn(S(=O)(=O)C5CC5)c4)n3)ncc2C#Cc2cnn(CC(F)(F)F)c2)CC1 [Example 349, 2-(1-(Cyclopropylsulfonyl)-1H-pyrazol-4-yl)-N-(4-(4-(2-(dimethylamino)ethyl)piperidin-1-yl)-5-((1-(2,2,2-trifluoroethyl)-1H-pyrazol-4-yl)ethynyl)pyridin-2-yl)pyrimidin-4-amine]
0.9 nM	1 nM	1 nM	0.5 nM	7.5 nM	3.8 nM	29.7 nM	> 10000 nM	4.9 nM	18.2 nM	O=S(=O)(C1CC1)n1cc(-c2nccc(Nc3cc(N[C@H]4CC[C@@H](O)CC4)c(C#Cc4cnn(CC(F)(F)F)c4)cn3)n2)cn1 [Example 339, (1s,4s)-4-((2-((2-(1-(Cyclopropylsulfonyl)-1H-pyrazol-4-yl)pyrimidin-4-yl)amino)-5-((1-(2,2,2-trifluoroethyl)-1H-pyrazol-4-yl)ethynyl)pyridin-4-yl)amino)cyclohexan-1-ol]
0.9 nM	0.8 nM	0.8 nM	0.2 nM	3.6 nM	2.3 nM	11.8 nM	> 10000 nM	4.5 nM	11 nM	O=S(=O)(C1CC1)n1cc(-c2nccc(Nc3cc(N4CCC(F)(CO)CC4)c(C#Cc4cnn(CC(F)(F)F)c4)cn3)n2)cn1 [Example 342, (1-(2-((2-(1-(Cyclopropylsulfonyl)-1H-pyrazol-4-yl)pyrimidin-4-yl)amino)-5-((1-(2,2,2-trifluoroethyl)-1H-pyrazol-4-yl)ethynyl)pyridin-4-yl)-4-fluoropiperidin-4-yl)methanol]
0.4 nM	0.3 nM	0.5 nM	0.2 nM	17.1 nM	10.8 nM	9580 nM	> 10000 nM	42.8 nM	149 nM	O=S(=O)(C1CC1)n1cc(-c2nccc(Nc3cc(N4CCC(F)(CO)CC4)c(C#Cc4cnn(C(F)(F)F)c4)cn3)n2)cn1 [Example 338, (1-(2-((2-(1-(Cyclopropylsulfonyl)-1H-pyrazol-4-yl)pyrimidin-4-yl)amino)-5-((1-(trifluoromethyl)-1H-pyrazol-4-yl)ethynyl)pyridin-4-yl)-4-fluoropiperidin-4-yl)methanol]
